Reference: publication PMC12473689, “Drug Metabolism and Pharmacokinetics of Oxazolo[4,5-c]quinoline Analogs as Novel Interleukin-33 Inhibitors” (Pharmaceutics, 2025)
Read-outs that look alike come from different tables or passages of the source. One block for each compound: values may come before it.

Experiments:
[1] = Pharmacokinetic study after single IV and PO dose; format: in vivo; conditions: male ICR mice; for bioavailability: oral, 10 mg/kg; for half-life: noncompartmental analysis
Description: All animal procedures were reviewed and approved by the Institutional Animal Care and Use Committee (IACUC) of Korea University (Approval No: KUIACUC-2020-0031) and conducted in compliance with the IACUC guidelines. […] In accordance with an approved protocol, mice were euthanized by CO2 asphyxiation at the end of the study. For intravenous (IV) administration, KB-1517 was dissolved in a vehicle of dimethylacetamide/Tween 80/water (5/5/90, v/v/v) at 1 mg/mL. KB-1518 (as TFA salt) was dissolved in DMSO/saline (10/90, v/v) at 1 mg/mL. Mice (n = 4 per group per compound) received a single IV dose of 5 mg/kg via the tail vein (dose volume: 5 mL/kg). For oral (PO) administration, the same formulations were used, and mice (n = 4 per group per compound) received a single dose of 10 mg/kg via oral gavage (dose volume: 10 mL/kg). For intraperitoneal (IP) administration, a suspension of KB-1517 or KB-1518 (0.4 mg/mL in PBS) was prepared by diluting a DMSO stock solution (13 mg/mL). Mice (n = 4 per compound) received a single IP injection of 0.2 mg per animal (dose volume: 500 µL). Serial blood samples (approximately 40 µL) were collected via the saphenous vein into Microvette® 100LH heparinized capillary tubes at selected time points. […] Plasma samples were stored in freezer until LC-MS/MS analysis. Protein precipitation was performed on 15 µL aliquots of plasma samples by adding three volumes of acetonitrile containing diclofenac as an analytical internal standard. The mixture was vortexed thoroughly and centrifuged at 3000× g for 30 min at 4 °C. A 50 µL aliquot of the resulting supernatant was transferred to a 96-well plate and mixed with 50 µL of water. The prepared solutions were analyzed using an Agilent 6460 QQQ LC-MS/MS system (Agilent Technologies Korea Ltd., Seoul, Republic of Korea). Quantitative analysis was performed using an Agilent 1290 Infinity Series HPLC system (Agilent Technologies Korea Ltd., Seoul, Republic of Korea) coupled to an Agilent 6460 QQQ mass spectrometer system (Agilent Technologies Korea Ltd., Seoul, Republic of Korea) with a dual AJS ESI ion source operating in positive ion mode. For chromatographic separation, an Agilent Eclipse Plus C18 column (2.1 × 100 mm, 3.5 µm) (Agilent Technologies Korea Ltd., Seoul, Republic of Korea) protected by a Phenomenex SecurityGuard C18 guard column was used. The mobile phase consisted of (A) 0.1% formic acid in water and (B) 0.1% formic acid in acetonitrile. […] The flow rate was 0.45 mL/min, the injection volume was 3 µL, and the column temperature was 40 °C. The ion source parameters for the mass spectrometer were set as follows: gas temperature 325 °C, gas flow 12 L/min, nebulizer pressure 35 psi, sheath gas temperature 350 °C, and sheath gas flow 10 L/min. Multiple Reaction Monitoring (MRM) transitions were used for quantification: KB-1517: m/z 402 → 72 (CE 10 V); KB-1518: m/z 402 → 72 (CE 5 V); Diclofenac (IS): m/z 296 → 215 (CE 30 V); […] Ranitidine: m/z 315 → 102 (CE 33 V); Itraconazole: m/z 705 → 395 (CE 40 V); […] Data acquisition and processing were performed using Agilent MassHunter Quantitative Analysis software (ver. B.05.00). Calibration curves were constructed using weighted linear regression. Noncompartmental analysis (NCA) was performed using PKSolver to determine pharmacokinetic parameters from the plasma concentration-time data. Parameters included: maximum plasma concentration (Cmax), time to reach Cmax (tmax), terminal elimination half-life (t1/2), area under the plasma concentration-time curve from time zero to the last measurable concentration (AUClast), area under the plasma concentration-time curve extrapolated to infinity (AUCinf), total body clearance (CL), and volume of distribution at steady state (Vss). […] Due to the anomalous profile of KB-1517, AUClast was used for its F calculation, and some parameters (t½, CL, Vss for IV; AUCinf for PO) could not be reliably determined (ND). […]

[2] = Plasma protein binding by equilibrium dialysis (RED), human plasma; format: in vitro ADME; conditions: equilibrium dialysis 37 °C 4 h, mean ± SD (n = 3), read-out: fu (%) plasma protein binding
Description: (§1) The nonspecific binding of KB-1517 and KB-1518 in human and mouse plasma and liver S9 fractions was determined by equilibrium dialysis using a Rapid Equilibrium Device (RED) system (Thermo Fisher Scientific, Seoul, Republic of Korea).
(§2) Working solutions (200 μM for plasma, 60 μM for S9 fractions) were prepared in 40% aqueous acetonitrile. These were diluted 20-fold into either plasma or S9 incubation buffer (1 mg/mL protein, 200 mM Tris-HCl, 2 mM MgCl2, pH 7.4) to create the final dosing solutions.
(§3) For the dialysis, RED inserts (8 kDa MWCO) were used. Into each device, 200 μL of a dosing solution was added to the sample chamber, and 350 μL of PBS was added to the buffer chamber. The plate was sealed and incubated at 37 °C for 4 h on an orbital shaker (100 rpm) to allow the system to reach equilibrium.
(§4) Following incubation, 50 μL aliquots were taken from both chambers. To ensure analytical consistency, the samples were matrix-matched: the sample chamber aliquot was mixed with 50 μL of PBS, and the buffer chamber aliquot was mixed with 50 μL of the corresponding blank matrix (plasma or S9 incubation buffer). Proteins were then precipitated by adding 200 μL of ice-cold acetonitrile containing diclofenac (1 μg/mL) as IS. The samples were subsequently vortexed, sonicated for 5 min, and centrifuged at 4000× g for 20 min. Finally, a 100 μL aliquot of the resulting supernatant was diluted with 100 μL of HPLC-grade water in a 96-well plate for subsequent LC-MS/MS analysis.

[3] = Plasma protein binding by equilibrium dialysis (RED), mouse plasma; format: in vitro ADME; conditions: male, ICR, equilibrium dialysis 37 °C 4 h, mean ± SD (n = 3), read-out: fu (%) plasma protein binding
Description: as §1, §2, §3, §4

[4] = Binding in human liver S9 fraction by equilibrium dialysis (RED); format: in vitro ADME; conditions: equilibrium dialysis 37 °C 4 h, mean ± SD (n = 3)
Description: as §1, §2, §3, §4

[5] = Binding in mouse liver S9 fraction by equilibrium dialysis (RED); format: in vitro ADME; conditions: equilibrium dialysis 37 °C 4 h, mean ± SD (n = 3)
Description: as §1, §2, §3, §4

[6] = mouse, plasma, single IV dose 5 mg/kg, mean ± SD (n = 4)
[7] = mouse, plasma, single PO dose 10 mg/kg, mean ± SD (n = 4)

F (apparent oral bioavailability) ([1]; PO 10 mg/kg vs IV 5 mg/kg, calculated using AUClast): 119.3 ± 20.1%
bioavailability ([1]; male, ICR, mouse, plasma, PO 10 mg/kg vs IV 5 mg/kg, calculated using AUClast, read-out: F (apparent oral bioavailability)): > 100%
AUC(0-t) [1, 6]: 1830 ± 348 ng·h/mL
AUC(0-t) [1, 7]: 4370 ± 738 ng·h/mL
Cmax [1, 7]: 289 ± 34.1 ng/mL
Tmax [1, 7]: 5.6 ± 3.5 h
fraction unbound at 4 h, 10 µM [2]: < 0.02
fraction unbound at 4 h, 10 µM [3]: < 0.02
fu (%) in liver S9 fractions ([4]; human liver S9, 1 mg/mL protein): 19.1 ± 0.7%
fraction unbound at 4 h, 3 µM ([4]; human, liver S9 fraction, pH 7.4, human liver S9, 1 mg/mL protein, read-out: fu (%) in liver S9 fractions): < 0.2
fraction unbound at 4 h, 3 µM ([5]; ICR, mouse, liver S9 fraction, pH 7.4, mouse liver S9, 1 mg/mL protein, read-out: fu (%) in liver S9 fractions): < 0.2
fu (%) in liver S9 fractions ([5]; mouse liver S9, 1 mg/mL protein): 15.1 ± 0.8%
SMILES: CN(C)CCn1c(=O)c2nc(-c3ccc(C(F)(F)F)cc3)oc2c2ccccc21 [KB-1517, 5-(2-(dimethylamino)ethyl)-2-(4-(trifluoromethyl)phenyl)oxazolo[4,5-c]quinolin-4(5H)-one]

F (oral bioavailability) ([1]; PO 10 mg/kg vs IV 5 mg/kg, calculated from AUCinf): 13.6 ± 3.4%
CL ([1]; single IV dose 5 mg/kg, mean ± SD (n = 4), 5 mg/kg): 25 ± 3.3 mL/min/kg
clearance ([1]; male, ICR, mouse, plasma, iv, 5 mg/kg, single IV dose 5 mg/kg, mean ± SD (n = 4)): ~25 mL/min/kg
Vd ([1]; male, ICR, mouse, plasma, iv, 5 mg/kg, single IV dose 5 mg/kg, mean ± SD (n = 4), read-out: Vss): ~4.6 L/kg
bioavailability ([1]; male, ICR, mouse, plasma, PO 10 mg/kg vs IV 5 mg/kg, calculated from AUCinf, read-out: F (oral bioavailability)): ~14%
AUC(0-inf) [1, 6]: 3460 ± 476 ng·h/mL
AUC(0-t) [1, 6]: 3460 ± 474 ng·h/mL
AUC(0-inf) [1, 7]: 942 ± 234 ng·h/mL
AUC(0-t) [1, 7]: 868 ± 267 ng·h/mL
Cmax [1, 7]: 157 ± 104 ng/mL
Tmax [1, 7]: 1.6 ± 0.8 h
half-life ([1]; mouse, single IV dose 5 mg/kg, plasma, mean ± SD (n = 4)): 2.6 ± 0.3 h
half-life ([1]; mouse, single PO dose 10 mg/kg, plasma, mean ± SD (n = 4)): 6.2 ± 1.9 h
SMILES: CN(C)CCOc1nc2ccccc2c2oc(-c3ccc(C(F)(F)F)cc3)nc12 [KB-1518, N,N-dimethyl-2-((2-(4-(trifluoromethyl)phenyl)oxazolo[4,5-c]quinolin-4-yl)oxy)ethan-1-amine]
